# Source: patent US6680058B1, “Compositions and methods for contraception in or sterilization of mammals” (Board of Supervisors of Louisiana State University and …, priority 1997, dated 2004)
# Legend:
# granulosa cells = test: Steroid hormone production by granulosa cells (data not shown); type: cell-based, bovine
# Source text: Stimulation of target cell hormone production was not required for cell lysis.
# [1] = test system: sexually mature, Sprague-Dawley female rats; test: Sexually mature Sprague-Dawley female rats, single intravenous treatment, necropsy 48 or 96 hours after treatment, H&E and PAS stain (Examples 15-22); type: in vivo, rat; conditions: 334 μg in 200 μL saline (1.35 mM) i.v.; sacrificed 48 or 96 hours after injection
# Protocol: Eight sexually mature, Sprague-Dawley female rats were randomly assigned to one of eight treatments. Each group of rats received a single treatment intravenously, as described below. Rats were sacrificed and necropsied either 48 or 96 hours after treatment. The ovaries, uterus, pancreas, liver, spleen, lungs, heart, thyroid, and adrenal glands were fixed in 10% buffered formalin; sectioned; and stained with H&E (hematoxylin and eosin) stain; except that the pituitary glands were stained with PAS (periodic acid-Schiff) stain with no counter-stain. The treatments were selected so that each animal received an equimolar amount of the compound with which it was treated.
# GnRH receptor [2] = target: T1, GnRH receptor (Homo sapiens, UniProt P30968); conditions: reported; see U.S. Pat. No. 5,488,036; cited from earlier work
# T1 sequence (P30968 1-328): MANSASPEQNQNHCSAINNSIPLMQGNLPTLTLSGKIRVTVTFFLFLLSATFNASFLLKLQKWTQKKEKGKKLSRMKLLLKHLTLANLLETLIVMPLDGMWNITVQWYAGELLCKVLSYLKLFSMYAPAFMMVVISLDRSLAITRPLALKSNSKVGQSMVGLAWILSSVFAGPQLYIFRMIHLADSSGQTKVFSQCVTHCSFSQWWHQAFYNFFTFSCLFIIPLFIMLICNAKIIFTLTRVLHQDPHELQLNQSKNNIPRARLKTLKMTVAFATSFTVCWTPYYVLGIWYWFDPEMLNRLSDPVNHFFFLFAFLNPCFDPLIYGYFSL
# GnRH receptor [3] = target: T2, GnRH receptor (Rattus norvegicus, UniProt P30969); test: Displacement of radiolabelled monoiodinated-GnRH from rat pituitary membranes (Example 24); type: binding
# T2 construct: specifically displaced radiolabelled monoiodinated-GnRH from rat pituitary membranes; from tissue; host or cells: rat pituitary membranes
# T2 sequence (P30969 1-327): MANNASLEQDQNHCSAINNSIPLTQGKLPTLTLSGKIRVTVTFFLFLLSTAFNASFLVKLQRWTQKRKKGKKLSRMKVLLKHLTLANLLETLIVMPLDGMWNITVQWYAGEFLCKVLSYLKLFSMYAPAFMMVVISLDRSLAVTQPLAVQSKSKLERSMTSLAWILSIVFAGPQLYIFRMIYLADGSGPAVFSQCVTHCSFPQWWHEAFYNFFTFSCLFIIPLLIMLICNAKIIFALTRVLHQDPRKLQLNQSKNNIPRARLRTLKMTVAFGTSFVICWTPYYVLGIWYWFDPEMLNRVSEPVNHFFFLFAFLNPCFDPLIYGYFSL
# Source text: We also synthesized D-Lys^6GnRH (SEQ. ID NO. 13), so that hecate could be conjugated to the D-Lys^6, a position that could minimize interference with binding of the GnRH domain to the GnRH receptor. These synthetic peptides specifically displaced radiolabelled monoiodinated-GnRH from rat pituitary membranes.
# [4] = test system: bovine small luteal cells; test: In vitro lysis of bovine small luteal cells, Trypan Blue exclusion and release of lactic dehydrogenase (Examples 25-32); type: cell-based; conditions: 22 hr. incubation; for killing of small luteal cells: Trypan Blue exclusion
# Protocol: We studied in vitro lysis of bovine luteal cells with GnRH-hecate conjugate and with hecate-bLH conjugate (SEQ. ID NO. 12). (The bLH component of the conjugate is a 15-mer fragment of the beta chain of luteinizing hormone, SEQ. ID NO. 11). Small luteal cells were collected from cattle corpora lutea post-slaughter.
# Small luteal cells in culture were incubated with one of the following treatments for 22 hours, and were then examined for viability using Trypan Blue exclusion and release of lactic dehydrogenase.
# [5] = test system: sexually mature, mixed breed, female rats; test: Sexually mature female rats, double intravenous treatment, necropsy two weeks after treatment (Examples 9-14); type: in vivo, rat; conditions: Treatment 12: hecate 337 μg i.v., repeated after 24 hours; two weeks
# Source text: Eighteen sexually mature, mixed breed, female rats were randomly assigned to one of six groups containing three rats each. Each group of rats received a double treatment intravenously, as described below. Two weeks after the treatment, the rats were sacrificed and necropsied. The reproductive and endocrine organs were sectioned, weighed, and examined histologically.
# [6] = test system: pituitary basophilic (gonadotropic) cells; test: Adult female rat pituitary gland sections in tissue culture, histology ten hours after treatment (Examples 1-6); type: cell-based; conditions: 50 μM hecate in the medium; ten hours
# Protocol: The pituitary gland of an adult female rat was harvested and divided into six sections of approximately equal size. One section was placed in each of six wells containing tissue culture medium at 37° C. A different treatment was applied to each well, as described below. Ten hours after treatment, the tissue from each well was fixed, and the histology of each was examined microscopically.
# bovine granulosa cells = test: In vitro lysis of bovine granulosa cells (Examples 33-34); type: cell-based; conditions: hecate alone; compared with small luteal cells
# Source text: We also studied in vitro lysis of bovine granulosa cells with GnRH-hecate conjugate and with hecate-bLH conjugate. Granulosa cells were isolated from bovine pre-ovulatory follicles. (Granulosa cells are hormonally active cells with numerous LH receptors.) Our experiments with granulosa cells were otherwise generally similar to those described above for Examples 25-32.
# [7] = test system: cells of the flat oyster Ostrea edulis; conditions: at the doses that reduced parasite viability; Morvan et al. 1994; cited from earlier work
# Bonamia ostreae = conditions: in vitro; Morvan et al. 1994; cited from earlier work
compound,measurement,setting,value
"15-mer fragment of the bLH subunit: 15-mer fragment of the beta chain of luteinizing hormone, SEQ. ID NO. 11 (SYAVALSCQCALCRR)",production of steroid hormones (stimulus-coupled response),granulosa cells,did not initiate the production of steroid hormones
"CC(C)C[C@H](NC(=O)CNC(=O)[C@H](Cc1ccc(O)cc1)NC(=O)[C@H](CO)NC(=O)[C@H](Cc1c[nH]c2ccccc12)NC(=O)[C@H](Cc1cnc[nH]1)NC(=O)[C@@H]1CCC(=O)N1)C(=O)N[C@@H](CCCNC(=N)N)C(=O)N1CCC[C@H]1C(=O)NCC(N)=O [GnRH, gonadotropin-releasing hormone, reference compound]",gross lesions in the organs,[1],No gross lesions
CCNC(=O)[C@@H]1CCCN1C(=O)[C@H](CCCNC(=N)N)NC(=O)[C@H](CC(C)C)NC(=O)[C@@H](COC(C)(C)C)NC(=O)[C@H](Cc1ccc(O)cc1)NC(=O)[C@H](CO)NC(=O)[C@H](Cc1c[nH]c2ccccc12)NC(=O)[C@H](Cc1cnc[nH]1)NC(=O)[C@@H]1CCC(=O)N1 [buserelin],binding affinity to the GnRH receptor compared with GnRH,GnRH receptor [2],greater binding affinity to the GnRH receptor than does GnRH itself
CC(C)C[C@H](NC(=O)[C@@H](COC(C)(C)C)NC(=O)[C@H](Cc1ccc(O)cc1)NC(=O)[C@H](CO)NC(=O)[C@H](Cc1c[nH]c2ccccc12)NC(=O)[C@H](Cc1cnc[nH]1)NC(=O)[C@@H]1CCC(=O)N1)C(=O)N[C@@H](CCCNC(=N)N)C(=O)N1CCC[C@H]1C(=O)NNC(N)=O [goserelin],binding affinity to the GnRH receptor compared with GnRH,GnRH receptor [2],greater binding affinity to the GnRH receptor than does GnRH itself
CCNC(=O)[C@@H]1CCCN1C(=O)[C@H](CCCNC(=N)N)NC(=O)[C@H](CC(C)C)NC(=O)[C@@H](CC(C)C)NC(=O)[C@H](Cc1ccc(O)cc1)NC(=O)[C@H](CO)NC(=O)[C@H](Cc1c[nH]c2ccccc12)NC(=O)[C@H](Cc1c[nH]cn1)NC(=O)[C@@H]1CCC(=O)N1 [leuprolide],binding affinity to the GnRH receptor compared with GnRH,GnRH receptor [2],greater binding affinity to the GnRH receptor than does GnRH itself
D-Lys^6GnRH-hecate: hecate conjugated to the D-Lys^6 of D-Lys^6GnRH,"displacement of radiolabelled monoiodinated-GnRH, compared with native mammalian GnRH",GnRH receptor [3]; as measured by cpm of radioactivity,comparable to (and actually slightly greater than) displacement by native mammalian GnRH
"D-Lys^6GnRH: GnRH analog with D-Lys at position 6, SEQ. ID NO. 13",specific displacement of the radiolabelled peptide relative to equimolar concentrations of GnRH,"GnRH receptor [3]; molar basis over a 1000-fold concentration range (n=6), native GnRH = 100%",187%±8%
"hecate: amphipathic lytic peptide, synthetic peptide analog of melittin, SEQ. ID NO. 2 (FALALKALKKALKKLKKALKKAL) [reference compound]",cell death of small luteal cells,[4]; 1 μM,did not differ significantly from negative control (media) or from bLH alone
same,killing of small luteal cells,[4]; 5 μM,approximately 50%
same,killing of small luteal cells,[4]; 10 μM,Significant killing
same,ovarian function,[5],normal ovarian function
same,histology of pituitary tissue after treatment,[6],appeared normal
same,susceptibility of granulosa cells to killing,bovine granulosa cells,much more susceptible to killing by hecate alone than were the small luteal cells
"magainin 1: antimicrobial peptide magainin 1 (GIGKFLHSAGKFGKAFVGEIMKS; Magainin-1; UniProt P11006 37-59, looked up)",effect on cells of the flat oyster Ostrea edulis,[7],did not affect
same,viability of the parasite Bonamia ostreae,Bonamia ostreae,selectively reduce the viability
